Assays:
male Wistar rats = test: Foot shock-induced ultrasonic vocalization (USV) in adult rats; type: in vivo; settings: Rattus norvegicus, po, 1 mg/kg, p.o., 1 h before shocking
Method: Foot Shock-Induced Ultrasonic Vocalization (USV) in Adult Rats
Under stressful conditions, adult rats emit 22 kHz ultrasounds that can be reduced by various pharmacological treatments (De Vry et al, Eur. J. Pharmacol. 1993, 249, 331-339; Sanchez, Eur. J. Pharmacol. 2003, 463, 133-143). […] Therefore, a foot shock-induced vocalization paradigm in adult rats was used to assess in vivo efficacy of centrally acting GABAB receptor ligands. Behavioral measurements were carried out on male Wistar rats (200-250 g, Toxicoop, Hungary or Janvier, France). Rats were housed in groups of four in plastic cages with a wire grid top in a temperature and light-controlled laboratory animal care unit (22±2° C., 12-h light/dark cycle, lights on at 6:00 AM) with ad libitum access to commercial pellet rat food and tap water. Investigations were approved by the Local Ethical Committee of Gedeon Richter Plc. and were carried out in strict compliance with the European Directive 2010/63/EU regarding the care and use of laboratory animals for experimental procedures and all efforts were made to minimize the number of animals as well as their suffering. In order to evoke emission of ultrasounds, animals were footshocked after a habituation period of 30 s (6 shocks, 1 s, 0.8 mA each, inter-shock interval 10 s) in a sound attenuated shocking chamber (Experimetria, 40×40×80 cm). […] Vocalizations were measured right after the last footshock for 10 min with a Metris Sonotrack system and the total time of vocalizations was registered. Vocalization of parallel vehicle treated animals was considered as control value and inhibition percent was calculated for each compound.
In Table 2 compounds of this invention measured in the USV assay are listed.

GABAB receptor = biological target: T1, GABAB receptor (Rattus norvegicus, UniProt O88871+Q9Z0U4); test: In vitro [35S]GTPγS binding assay in rat cortical membranes; type: biochemical; settings: PAM EC50, [35S]GTPγS binding, read-out: In vitro PAM potency
T1 construct: from tissue; host or cells: rat brain cortex membranes
Procedure, shortened: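 Rat cortical membranes were washed of endogenous GABA, then preincubated with compound and 50 μM GDP for 10 min at 30 °C in Tris pH 7.4 with NaCl, MgCl2, EDTA and DTT. [35S]GTPγS was added and incubation ran 60 min at 30 °C, with nonspecific binding defined by 10 μM GTPγS. Filter-bound radioactivity gave PAM EC50.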

T1 sequence (O88871 41-940): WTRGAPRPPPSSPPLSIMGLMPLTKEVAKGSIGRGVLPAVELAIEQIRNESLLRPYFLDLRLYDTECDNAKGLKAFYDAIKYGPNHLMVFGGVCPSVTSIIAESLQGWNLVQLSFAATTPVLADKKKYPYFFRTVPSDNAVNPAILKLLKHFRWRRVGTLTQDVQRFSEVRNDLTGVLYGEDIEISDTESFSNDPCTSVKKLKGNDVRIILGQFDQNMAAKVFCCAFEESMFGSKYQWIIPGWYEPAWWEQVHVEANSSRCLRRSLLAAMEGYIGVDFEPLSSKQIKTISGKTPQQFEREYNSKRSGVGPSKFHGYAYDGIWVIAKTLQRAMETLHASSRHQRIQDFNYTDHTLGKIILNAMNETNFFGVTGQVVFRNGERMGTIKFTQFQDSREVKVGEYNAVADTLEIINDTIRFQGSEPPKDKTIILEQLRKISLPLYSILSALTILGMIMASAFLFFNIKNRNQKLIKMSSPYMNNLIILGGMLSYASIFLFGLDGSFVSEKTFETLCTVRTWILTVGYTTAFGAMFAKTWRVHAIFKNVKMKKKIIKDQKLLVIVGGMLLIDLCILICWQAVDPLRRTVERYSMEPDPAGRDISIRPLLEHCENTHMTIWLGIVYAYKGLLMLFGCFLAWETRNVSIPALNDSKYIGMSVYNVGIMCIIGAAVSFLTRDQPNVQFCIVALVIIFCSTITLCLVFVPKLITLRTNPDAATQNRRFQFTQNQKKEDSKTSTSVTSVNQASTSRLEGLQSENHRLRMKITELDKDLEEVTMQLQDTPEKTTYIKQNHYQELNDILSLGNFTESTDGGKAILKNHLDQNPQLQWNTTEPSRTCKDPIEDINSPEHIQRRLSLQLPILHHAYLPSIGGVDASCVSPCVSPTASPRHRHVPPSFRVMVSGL
T1 sequence (Q9Z0U4 17-960 limits assumed): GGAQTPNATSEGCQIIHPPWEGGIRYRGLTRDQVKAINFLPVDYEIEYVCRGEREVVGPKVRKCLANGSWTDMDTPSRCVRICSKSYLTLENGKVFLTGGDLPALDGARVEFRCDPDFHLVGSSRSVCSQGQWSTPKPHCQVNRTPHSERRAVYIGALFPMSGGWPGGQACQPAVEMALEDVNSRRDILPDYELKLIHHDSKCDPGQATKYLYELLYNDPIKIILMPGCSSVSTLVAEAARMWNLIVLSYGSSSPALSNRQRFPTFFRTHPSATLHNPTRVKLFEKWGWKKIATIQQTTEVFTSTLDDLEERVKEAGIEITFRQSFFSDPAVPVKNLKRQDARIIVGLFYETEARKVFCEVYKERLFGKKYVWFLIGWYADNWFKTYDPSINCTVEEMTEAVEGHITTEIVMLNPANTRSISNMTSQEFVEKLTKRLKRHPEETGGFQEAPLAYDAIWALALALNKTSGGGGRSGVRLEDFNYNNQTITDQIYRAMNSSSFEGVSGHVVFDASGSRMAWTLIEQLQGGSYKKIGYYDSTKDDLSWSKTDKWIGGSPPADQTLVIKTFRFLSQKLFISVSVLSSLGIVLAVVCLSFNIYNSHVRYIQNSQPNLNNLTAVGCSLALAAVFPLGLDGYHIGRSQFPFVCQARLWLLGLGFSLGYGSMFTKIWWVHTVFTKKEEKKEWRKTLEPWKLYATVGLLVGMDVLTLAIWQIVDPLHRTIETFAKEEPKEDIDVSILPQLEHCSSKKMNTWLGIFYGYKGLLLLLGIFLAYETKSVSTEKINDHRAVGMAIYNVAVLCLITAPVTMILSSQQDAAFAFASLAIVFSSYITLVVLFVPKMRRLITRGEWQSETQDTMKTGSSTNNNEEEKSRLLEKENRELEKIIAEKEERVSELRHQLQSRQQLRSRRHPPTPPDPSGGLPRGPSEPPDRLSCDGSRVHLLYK

| Compound | EC50 (GABAB receptor) [nM] | inhibition in vivo at 1 mg/kg (male Wistar rats) [%] |
| --- | --- | --- |
| CNC(=O)N1CCO[C@@H](c2cc(C)nc3cc([C@H]4CC[C@H](C(F)(F)F)CC4)nn23)C1 [Example 111] | 100 to 1000 | 44 |
| Cc1cc([C@H]2CN(C(=O)N(C)C)CCO2)n2nc([C@H]3CC[C@H](C(F)(F)F)CC3)cc2n1 [Example 112] | 100 to 1000 | 72 |
| Cc1cc([C@H]2CN(C(=O)c3cocn3)CCO2)n2nc([C@H]3CC[C@H](C(F)(F)F)CC3)cc2n1 [Example 113] | 100 to 1000 | 66 |
| CCOC(=O)N1CCO[C@@H](c2cc(C)nc3cc([C@H]4CC[C@H](C(F)(F)F)CC4)nn23)C1 [Example 116] | 100 to 1000 | 0 |

Further lines, with some results ahead:

| EC50 (GABAB receptor) [nM] | Compound | inhibition in vivo at 1 mg/kg (male Wistar rats) [%] |
| --- | --- | --- |
| < 100 | CCc1c(C)nc2cc([C@H]3CC[C@H](C(F)(F)F)CC3)nn2c1C1CN(C=O)CCO1 (stereo partly shown) [Example 82] | 86 |
| < 100 | COC(=O)N1CCO[C@@H](c2cc(C)nc3cc([C@H]4CC[C@H](C(F)(F)F)CC4)nn23)C1 [Example 91] | 89 |
| < 100 | COC(=O)N1CCO[C@@H](c2cc(C)nc3c(F)c([C@H]4CC[C@H](C(F)(F)F)CC4)nn23)C1 [Example 117] | 73 |
| < 100 | COC(=O)N1CCO[C@@H](c2cc(C)nc3cc([C@H]4CC[C@H](C(C)(C)C)CC4)nn23)C1 [Example 132] | 65 |

Reference: patent US12473293B2, “Pharmacologically active heterocyclic-substituted pyrazolo[1,5-a]pyrimidine derivatives” (Richter Gedeon Nyrt., priority 2020, dated 2025)
